Reference: PMC12529149, “Chemical and Antiplasmodial Investigations on Carapa-Derived Gedunin Derivatives and Semisynthetic 6- and 7‑Substituted Gedunin Analogues from the Brazilian Amazon” (ACS Omega, 2025)
Values joined by “and” are separate entries in the source; they are usually repeats but may differ in a detail not shown here. Equal entries are not always repeated. Where two headings read alike, the source gives them in different places.

What was measured:
[1] = tested on: K1 strain of Plasmodium falciparum; assay: In vitro susceptibility assay (microtest), P. falciparum K1 growth inhibition; format: cell-based; settings: Plasmodium falciparum, K1, 48 h, K1 strain, 48 h, CI95 in brackets; read-out: P. falciparum IC50 (CI95)
Experimental: In vitro culture of the K1 strain of P. falciparum (MRA-159, MR4, ATCC, Manassas, Virginia, USA) proceeded following an established method with modifications. Briefly, this method involved the growth of parasites in human type A+ red blood cells and RPMI 1640 medium supplemented with 10% type A+ human plasma at 37 °C under an atmosphere of 5% O2, 5% CO2, and 90% N2.
As initial condition for the susceptibility assay, cultures were synchronized by treatment with 5% D-sorbitol, which provided young trophozoites (ring stages). Performance of the microtest followed a previously described procedure with modifications. Compounds were dissolved in DMSO with the aid of an ultrasound bath to provided stock solutions. […] These diluted samples were evaluated in duplicate in a 96-well test plate. A suspension of parasitized red blood cells (pRBCs) at 2% hematocrit and 1% parasitemia was added to each well. Microplate incubation proceeded for 48 h at 37 °C under the same atmosphere used for parasite culture in two independent experiments conducted on different days. Control wells contained chloroquine (0.003–2.5 μg/mL) and quinine (0.003–2.5 μg/mL). Six (6) control (blank) wells were prepared with pRBCs suspension. Six cosolvent control wells were prepared with 1% DMSO and pRBCs suspension. An average of these 12 controls defined drug-free (untreated) growth. After the incubation period, thin blood smears of the contents of each well were prepared on microscope slides. Optical microscopy was used to analyze the blood smears and establish the parasitemia of each well. Interpolation of the nonlinear curve using GraphPad Prism permitted the calculation of estimates of the sample concentrations able to inhibit 50% of parasite growth (IC50) compared to drug-free controls.

MRC-5 human fibroblasts [2] = assay: Cytotoxicity/cell viability assay (Alamar blue); format: cell-based; settings: MRC5, MRC-5, tested at 50 μg/mL for 48 h, read-out: fibroblasts IC50
Experimental: Medical Research Council cell strain 5 (MRC-5) human fetal fibroblasts were cultivated in Dulbecco′s modified Eagle’s medium (DMEM) supplemented with 10% bovine fetal serum and 1% antibiotic at 37 °C under an atmosphere of 5% CO2. Cell viability assessment relied on the Alamar blue method. […] Doxorubicin at concentrations of 0.312, 0.625, 1.25, 2.50, 5.00, 10.0, and 20.0 μM was used as a positive control for cell death. The negative control wells received DMSO (sample diluent) at 0.1%. In preparation for the assay, this method involved plating 0.5 × 10^4 cells/well on 96 well test plates and incubating for 24 h under the same conditions used for cell culture. This initial 24 h period was necessary for cell adhesion. The assay consisted of triplicate addition of diluted samples and controls to wells followed by 48 h of incubation. For quantification of viable cells, 10 μL of 0.4% Alamar blue (Sigma-Aldrich)–which works out to an in-well concentration of 0.02%–were added to each well 3 h before the end of the treatment. Alamar blue was allowed to react for 3 h followed by quantification of the optical density (OD) of each well at an excitation wavelength of 465 nm and emission wavelength of 540 nm using an ELISA plate reader (DTX-800, Beckman Coulter). Comparison of individual sample viability OD to that of controls (blanks) afforded the cell viability. Interpolation of the nonlinear curve using GraphPad Prism software permitted the calculation of estimates of the sample IC50 values compared to drug-free controls.

[3] = tested on: P. falciparum K1 strain vs MRC-5 human fibroblasts; assay: Selectivity index, IC50 (human fibroblasts) ÷ IC50 (P. falciparum); format: cell-based, Plasmodium falciparum
Description: Calculation of the selectivity index (SI) using the following formula afforded the relative toxicity of each sample to human fibroblasts and to P. falciparum blood stages: SI = IC50 (human fibroblasts) ÷ IC50 (P. falciparum).

[4] = tested on: variety of P. falciparum strains; settings: chloroquine-resistant (Dd2, K1, W2) and chloroquine-sensitive (3D7, D6, D10, FCR3, FCR3TC) strains; ref literature (numbers not shown); read-out: IC50, in vitro growth; cited from earlier work
[5] = tested on: P. falciparum FCR3 strain; set-up: method as in literature (numbers not shown); settings: ref literature (numbers not shown); cited from earlier work
P. falciparum K1 strain = tested on: P. falciparum K1 strain; set-up: method as in earlier work; settings: ref previous reports incl. authors' earlier work (numbers not shown); cited from earlier work
P. falciparum Dd2 strain = settings: ref recent study on C. guianensis (number not shown); cited from earlier work
P. falciparum W2 strain = tested on: P. falciparum W2 strain; set-up: method as in literature (numbers not shown); settings: ref literature (numbers not shown), listed as gedunin; cited from earlier work
P. falciparum D10 strain = tested on: P. falciparum D10 strain; set-up: method as in literature (number not shown); settings: ref literature (number not shown); cited from earlier work
Plasmodium berghei = settings: P. berghei-infected mice, cited from earlier work
[6] = tested on: mouse mammary carcinoma (FM3A) cell cultures; set-up: method as in literature (number not shown); settings: ref literature (number not shown); cited from earlier work
Hs578Bst cells = tested on: Hs578Bst cells; set-up: method as in literature (number not shown); settings: immortalized, adult-derived normal cells; ref literature (number not shown); cited from earlier work
[7] = tested on: human mammary epithelial cells (HME); set-up: method as in literature (number not shown); settings: ref literature (number not shown); cited from earlier work
MRC-5 human fibroblasts [8] = tested on: MRC-5 human fibroblasts; set-up: method as in authors' previous evaluation (number not shown); settings: ref authors' previous evaluation (number not shown); cited from earlier work

Compound	IC50 [1]	IC50 (MRC-5 human fibroblasts [2]) [µM]	selectivity index (SI) [3]	IC50 [4] [nM]	IC50 [5] [nM]	IC50 (P. falciparum K1 strain) [µM]	IC50 (P. falciparum Dd2 strain) [nM]	IC50 (P. falciparum W2 strain) [nM]	IC50 (P. falciparum D10 strain) [nM]	suppression of parasite growth vs untreated controls (Plasmodium berghei; oral or subcutaneous 50–90 mg/kg/day, ref literature (numbers not shown))	toxicity to FM3A cells [6]	toxicity to Hs578Bst cells (Hs578Bst cells)	toxicity to HME cells [7]	IC50 (MRC-5 human fibroblasts [8]) [µM]	suppression of parasitemia (Plasmodium berghei; oral 50–100 mg/kg/day, ref authors' earlier work (number not shown))
CC(=O)O[C@@H]1C[C@H]2C(C)(C)C(=O)C=C[C@]2(C)[C@H]2CC[C@@]3(C)[C@H](c4ccoc4)OC(=O)[C@H]4O[C@]43[C@@]21C (single isomer, unassigned) [compound 4, gedunin]	1.4 µg/mL and 2.8 µM	> 100	>37	20 to 3100	2500	1.5	2800 ± 200	1310 ± 420	1660 ± 370	failed to significantly suppress parasite growth	toxic	no appreciable toxicity	no appreciable toxicity		
CC(=O)O[C@H]1[C@@H](OC(C)=O)[C@]2(C)[C@H](CC[C@@]3(C)[C@H](c4ccoc4)OC(=O)[C@H]4O[C@@]423)[C@@]2(C)C=CC(=O)C(C)(C)[C@H]12 [compound 12, 6α-acetoxygedunin]						7	2100 ± 200							> 110	40–66%
